Laboratory results: patent US20060069132A1, “Azolecarboxamide herbicides” (priority 2004, published 2006)

These compounds were tested on ducksalad (assay: Test C flooded paddy test). Conditions: 62 g ai/ha, scale 0 to 100.
Assay type: in vivo, Heteranthera limosa

Q: With CCn1nc(C2(C)CC2)cc1C(=O)Nc1cccc(C(=O)N2CC=CC2)c1 [Compound 304] as the compound, how does the “Ducksalad plant response rating” value read?
A: 65

Same assay, conditions: 125 g ai/ha, scale 0 to 100 (0 no effect, 100 complete control)

Q: With CCn1nc(C2(C)CC2)cc1C(=O)Nc1cccc(C(=O)N2CC=CC2)c1 [Compound 304] as the compound, how does the “Ducksalad plant response rating” value read?
A: 85

Same assay, conditions: 250 g ai/ha, scale of 0 to 100, 0 is no effect, 100 is complete control

Q: For CCn1nc(C2(C)CC2)cc1C(=O)Nc1cccc(C(=O)N2CC=CC2)c1 [Compound 304], which “Ducksalad plant response rating” value is on record?
A: 95

Same assay, conditions: 500 g ai/ha, visual rating after 12 to 14 days, scale 0 to 100 (0 no effect, 100 complete control)

Q: CCn1nc(C2(C)CC2)cc1C(=O)Nc1cccc(C(=O)N2CC=CC2)c1 [Compound 304] was tested. Which “Plant response rating, Ducksalad” value did it give?
A: 95

What follows are compounds tested on common ragweed (assay: Test C pre-/postemergence herbicide test). Conditions: 62 g ai/ha; preemergence; scale 0 to 100.
Assay type: in vivo, Ambrosia elatior
Set-up: key to Plant response rating, Ragweed: 0 = no effect, 100 = complete control
How it was run: (§1)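 Pre- and postemergence application, solvent/surfactant formulation; post at 1- to 4-leaf stage (2–18 cm). Greenhouse 12–14 d. Visual rating vs controls, 0 = no effect, 100 = complete control.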

Q: How did the “Plant response rating, Ragweed” value turn out when CCn1nc(C2(C)CC2)cc1C(=O)Nc1cccc(C(=O)N2CC=CC2)c1 [Compound 304] was run?
A: 0

Same assay, conditions: 250 g ai/ha; scale 0-100; preemergence

Q: For CCn1nc(C2(C)CC2)cc1C(=O)Nc1cccc(C(=O)N2CC=CC2)c1 [Compound 304], which “Plant response rating, Ragweed” value is on record?
A: 70

Same assay, conditions: 500 g ai/ha; scale 0 to 100 (0 no effect, 100 complete control); visual, 12 to 14 days; preemergence

Q: CCn1nc(C2(C)CC2)cc1C(=O)Nc1cccc(C(=O)N2CC=CC2)c1 [Compound 304] was tested. Which “Plant response rating, Ragweed” value did it give?
A: 70

The compounds below were run on pigweed (assay: Test C pre-/postemergence herbicide test). Conditions: 62 g ai/ha; preemergence; scale 0 to 100.
Assay type: in vivo, Amaranthus retroflexus
How it was run: as §1

Q: Which “Plant response rating, Pigweed” value does the source give for CCn1nc(C2(C)CC2)cc1C(=O)Nc1cccc(C(=O)N2CC=CC2)c1 [Compound 304] here?
A: 100

Same assay, conditions: 125 g ai/ha; scale 0 (no effect) to 100 (complete control); visual, 12 to 14 days; preemergence

Q: With CCn1nc(C2(C)CC2)cc1C(=O)Nc1cccc(C(=O)N2CC=CC2)c1 [Compound 304] as the compound, how does the “Plant response rating, Pigweed” value read?
A: 100

Same assay, conditions: 250 g ai/ha; scale 0-100; preemergence

Q: For CCn1nc(C2(C)CC2)cc1C(=O)Nc1cccc(C(=O)N2CC=CC2)c1 [Compound 304], which “Plant response rating, Pigweed” value is on record?
A: 100

Same assay, conditions: 500 g ai/ha; scale 0 to 100 (0 no effect, 100 complete control); visual, 12 to 14 days; preemergence

Q: CCn1nc(C2(C)CC2)cc1C(=O)Nc1cccc(C(=O)N2CC=CC2)c1 [Compound 304] was tested. Which “Plant response rating, Pigweed” value did it give?
A: 100

These compounds were tested on yellow nutsedge (assay: Test C pre-/postemergence herbicide test). Conditions: 62 g ai/ha; preemergence; scale 0 to 100.
Assay type: in vivo, Cyperus esculentus
How it was run: as §1

Q: CCn1nc(C2(C)CC2)cc1C(=O)Nc1cccc(C(=O)N2CC=CC2)c1 [Compound 304] was tested. Which “Plant response rating, Nutsedge, Yellow” value did it give?
A: 0

Same assay, conditions: 125 g ai/ha; scale 0 (no effect) to 100 (complete control); visual, 12 to 14 days; preemergence

Q: With CCn1nc(C2(C)CC2)cc1C(=O)Nc1cccc(C(=O)N2CC=CC2)c1 [Compound 304] as the compound, how does the “Plant response rating, Nutsedge, Yellow” value read?
A: 0

Same assay, conditions: 250 g ai/ha; scale 0-100; preemergence

Q: How did the “Plant response rating, Nutsedge, Yellow” value turn out when CCn1nc(C2(C)CC2)cc1C(=O)Nc1cccc(C(=O)N2CC=CC2)c1 [Compound 304] was run?
A: 0

Same assay, conditions: 500 g ai/ha; scale 0 to 100 (0 no effect, 100 complete control); visual, 12 to 14 days; preemergence

Q: For CCn1nc(C2(C)CC2)cc1C(=O)Nc1cccc(C(=O)N2CC=CC2)c1 [Compound 304], which “Plant response rating, Nutsedge, Yellow” value is on record?
A: 5

Each compound was assayed on goosegrass (assay: Test C pre-/postemergence herbicide test). Conditions: 62 g ai/ha; preemergence; scale 0 to 100.
Assay type: in vivo, Eleusine indica
How it was run: as §1

Q: For CCn1nc(C2(C)CC2)cc1C(=O)Nc1cccc(C(=O)N2CC=CC2)c1 [Compound 304], which “Plant response rating, Goosegrass” value is on record?
A: 45

Same assay, conditions: 125 g ai/ha; scale 0 (no effect) to 100 (complete control); visual, 12 to 14 days; preemergence

Q: How did the “Plant response rating, Goosegrass” value turn out when CCn1nc(C2(C)CC2)cc1C(=O)Nc1cccc(C(=O)N2CC=CC2)c1 [Compound 304] was run?
A: 85

Same assay, conditions: 250 g ai/ha; scale 0-100; preemergence

Q: With CCn1nc(C2(C)CC2)cc1C(=O)Nc1cccc(C(=O)N2CC=CC2)c1 [Compound 304] as the compound, how does the “Plant response rating, Goosegrass” value read?
A: 90

Same assay, conditions: 500 g ai/ha; scale 0 to 100 (0 no effect, 100 complete control); visual, 12 to 14 days; preemergence

Q: With CCn1nc(C2(C)CC2)cc1C(=O)Nc1cccc(C(=O)N2CC=CC2)c1 [Compound 304] as the compound, how does the “Plant response rating, Goosegrass” value read?
A: 100

Each compound was assayed on large crabgrass (assay: Test C pre-/postemergence herbicide test). Conditions: 62 g ai/ha; preemergence; scale 0 to 100.
Assay type: in vivo, Digitaria sanguinalis
How it was run: as §1

Q: How did the “Plant response rating, Crabgrass, Large” value turn out when CCn1nc(C2(C)CC2)cc1C(=O)Nc1cccc(C(=O)N2CC=CC2)c1 [Compound 304] was run?
A: 35

Same assay, conditions: 125 g ai/ha; scale 0 (no effect) to 100 (complete control); visual, 12 to 14 days; preemergence

Q: For CCn1nc(C2(C)CC2)cc1C(=O)Nc1cccc(C(=O)N2CC=CC2)c1 [Compound 304], which “Plant response rating, Crabgrass, Large” value is on record?
A: 100

Same assay, conditions: 250 g ai/ha; scale 0-100; preemergence

Q: How did the “Plant response rating, Crabgrass, Large” value turn out when CCn1nc(C2(C)CC2)cc1C(=O)Nc1cccc(C(=O)N2CC=CC2)c1 [Compound 304] was run?
A: 100

Same assay, conditions: 500 g ai/ha; scale 0 to 100 (0 no effect, 100 complete control); visual, 12 to 14 days; preemergence

Q: For CCn1nc(C2(C)CC2)cc1C(=O)Nc1cccc(C(=O)N2CC=CC2)c1 [Compound 304], which “Plant response rating, Crabgrass, Large” value is on record?
A: 100

These compounds were tested on barnyardgrass (assay: Test C flooded paddy test). Conditions: 62 g ai/ha, scale 0 to 100 (0 no effect, 100 complete control).
Assay type: in vivo, Echinochloa crus-galli
How it was run: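 After a postemergence application at 1 to 4 leaves (plants 2–18 cm high), or at 2 leaves for barnyardgrass in flooded paddy, plants stayed in the greenhouse for 12 to 14 days. Damage was then judged visually relative to control plants, with 100 indicating complete control.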

Q: Which “Barnyardgrass plant response rating” value does the source give for CCn1nc(C2(C)CC2)cc1C(=O)Nc1cccc(C(=O)N2CC=CC2)c1 [Compound 304] here?
A: 40

Same assay, conditions: 125 g ai/ha, scale 0 to 100 (0 no effect, 100 complete control)

Q: With CCn1nc(C2(C)CC2)cc1C(=O)Nc1cccc(C(=O)N2CC=CC2)c1 [Compound 304] as the compound, how does the “Barnyardgrass plant response rating” value read?
A: 50

Same assay, conditions: 250 g ai/ha, scale of 0 to 100, 0 is no effect, 100 is complete control

Q: How did the “Barnyardgrass plant response rating” value turn out when CCn1nc(C2(C)CC2)cc1C(=O)Nc1cccc(C(=O)N2CC=CC2)c1 [Compound 304] was run?
A: 85

Same assay, conditions: 500 g ai/ha, visual rating after 12 to 14 days, scale 0 to 100 (0 no effect, 100 complete control)

Q: How did the “Plant response rating, Barnyardgrass” value turn out when CCn1nc(C2(C)CC2)cc1C(=O)Nc1cccc(C(=O)N2CC=CC2)c1 [Compound 304] was run?
A: 95

These compounds were tested on giant foxtail (assay: Test C pre-/postemergence herbicide test). Conditions: 62 g ai/ha; preemergence; scale 0 to 100.
Assay type: in vivo, Setaria faberi
How it was run: as §1

Q: Which “Plant response rating, Foxtail, Giant” value does the source give for CCn1nc(C2(C)CC2)cc1C(=O)Nc1cccc(C(=O)N2CC=CC2)c1 [Compound 304] here?
A: 5

Same assay, conditions: 125 g ai/ha; scale 0 (no effect) to 100 (complete control); visual, 12 to 14 days; preemergence

Q: With CCn1nc(C2(C)CC2)cc1C(=O)Nc1cccc(C(=O)N2CC=CC2)c1 [Compound 304] as the compound, how does the “Plant response rating, Foxtail, Giant” value read?
A: 50

Same assay, conditions: 250 g ai/ha; scale 0-100; preemergence

Q: CCn1nc(C2(C)CC2)cc1C(=O)Nc1cccc(C(=O)N2CC=CC2)c1 [Compound 304] was tested. Which “Plant response rating, Foxtail, Giant” value did it give?
A: 60

Same assay, conditions: 500 g ai/ha; scale 0 to 100 (0 no effect, 100 complete control); visual, 12 to 14 days; preemergence

Q: How did the “Plant response rating, Foxtail, Giant” value turn out when CCn1nc(C2(C)CC2)cc1C(=O)Nc1cccc(C(=O)N2CC=CC2)c1 [Compound 304] was run?
A: 90

These compounds were tested on soybean (assay: Test C pre-/postemergence herbicide test). Conditions: 62 g ai/ha; preemergence; scale 0 to 100.
Assay type: in vivo, Glycine max
How it was run: as §1

Q: Which “Plant response rating, Soybean” value does the source give for CCn1nc(C2(C)CC2)cc1C(=O)Nc1cccc(C(=O)N2CC=CC2)c1 [Compound 304] here?
A: 0

Same assay, conditions: 250 g ai/ha; scale 0-100; preemergence

Q: Which “Plant response rating, Soybean” value does the source give for CCn1nc(C2(C)CC2)cc1C(=O)Nc1cccc(C(=O)N2CC=CC2)c1 [Compound 304] here?
A: 20

Same assay, conditions: 500 g ai/ha; scale 0 to 100 (0 no effect, 100 complete control); visual, 12 to 14 days; preemergence

Q: CCn1nc(C2(C)CC2)cc1C(=O)Nc1cccc(C(=O)N2CC=CC2)c1 [Compound 304] was tested. Which “Plant response rating, Soybean” value did it give?
A: 20

These compounds were tested on velvetleaf (assay: Test C pre-/postemergence herbicide test). Conditions: 62 g ai/ha; preemergence; scale 0 to 100.
Assay type: in vivo, Abutilon theophrasti
How it was run: as §1

Q: For CCn1nc(C2(C)CC2)cc1C(=O)Nc1cccc(C(=O)N2CC=CC2)c1 [Compound 304], which “Plant response rating, Velvetleaf” value is on record?
A: 0

Same assay, conditions: 500 g ai/ha; scale 0 to 100 (0 no effect, 100 complete control); visual, 12 to 14 days; preemergence

Q: With CCn1nc(C2(C)CC2)cc1C(=O)Nc1cccc(C(=O)N2CC=CC2)c1 [Compound 304] as the compound, how does the “Plant response rating, Velvetleaf” value read?
A: 60
